Drawing on ChEMBL document CHEMBL1909046, “DrugMatrix in vitro pharmacology data”, this text covers IC50 and Ki for nine molecules.

One series concerns the target T1, Cytochrome P450 2A6 (Homo sapiens, UniProt P11509). Also: in other assays of this panel Not Active means under 50% inhibition at 10 µM.
T1 sequence (P11509 whole entry): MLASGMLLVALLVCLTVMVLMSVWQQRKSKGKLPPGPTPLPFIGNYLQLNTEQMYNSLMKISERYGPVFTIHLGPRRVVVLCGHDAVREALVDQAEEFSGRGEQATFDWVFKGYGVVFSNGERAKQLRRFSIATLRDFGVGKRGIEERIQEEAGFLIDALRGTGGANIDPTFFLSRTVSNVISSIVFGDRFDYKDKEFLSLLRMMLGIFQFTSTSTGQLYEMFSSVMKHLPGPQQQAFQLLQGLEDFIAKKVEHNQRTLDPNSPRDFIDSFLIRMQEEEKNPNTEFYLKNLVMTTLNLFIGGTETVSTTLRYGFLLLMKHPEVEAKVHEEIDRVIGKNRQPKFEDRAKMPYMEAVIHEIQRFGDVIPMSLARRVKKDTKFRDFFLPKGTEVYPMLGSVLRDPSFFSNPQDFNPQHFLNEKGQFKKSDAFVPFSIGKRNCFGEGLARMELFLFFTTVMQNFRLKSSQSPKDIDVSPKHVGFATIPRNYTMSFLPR
The conditions noted are these: bti-tn-5b1-4.

A further series deals with T2, Caspase-1 (Homo sapiens, UniProt P29466).
T2 sequence (P29466 whole entry): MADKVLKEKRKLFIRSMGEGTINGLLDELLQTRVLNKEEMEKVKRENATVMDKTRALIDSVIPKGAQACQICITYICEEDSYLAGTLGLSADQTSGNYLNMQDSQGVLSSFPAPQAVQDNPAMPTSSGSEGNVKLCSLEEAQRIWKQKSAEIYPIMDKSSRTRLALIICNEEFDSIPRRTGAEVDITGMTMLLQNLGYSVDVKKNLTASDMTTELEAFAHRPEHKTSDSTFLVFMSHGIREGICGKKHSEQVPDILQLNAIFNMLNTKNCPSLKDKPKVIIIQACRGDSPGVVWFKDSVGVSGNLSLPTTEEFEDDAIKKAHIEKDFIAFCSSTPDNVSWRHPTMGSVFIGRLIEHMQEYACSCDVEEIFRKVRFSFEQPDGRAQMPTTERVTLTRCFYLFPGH
Further details: species or system Escherichia coli.

For series [1], the target named is T3, Polyunsaturated fatty acid lipoxygenase ALOX15 (Oryctolagus cuniculus, UniProt P12530).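 Also: inhibition of 15-lipoxygenase enzyme activity measured with linoleic acid as the substrate; in other assays of this panel Not Active means under 50% inhibition at 10 µM.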
T3 sequence (P12530 whole entry): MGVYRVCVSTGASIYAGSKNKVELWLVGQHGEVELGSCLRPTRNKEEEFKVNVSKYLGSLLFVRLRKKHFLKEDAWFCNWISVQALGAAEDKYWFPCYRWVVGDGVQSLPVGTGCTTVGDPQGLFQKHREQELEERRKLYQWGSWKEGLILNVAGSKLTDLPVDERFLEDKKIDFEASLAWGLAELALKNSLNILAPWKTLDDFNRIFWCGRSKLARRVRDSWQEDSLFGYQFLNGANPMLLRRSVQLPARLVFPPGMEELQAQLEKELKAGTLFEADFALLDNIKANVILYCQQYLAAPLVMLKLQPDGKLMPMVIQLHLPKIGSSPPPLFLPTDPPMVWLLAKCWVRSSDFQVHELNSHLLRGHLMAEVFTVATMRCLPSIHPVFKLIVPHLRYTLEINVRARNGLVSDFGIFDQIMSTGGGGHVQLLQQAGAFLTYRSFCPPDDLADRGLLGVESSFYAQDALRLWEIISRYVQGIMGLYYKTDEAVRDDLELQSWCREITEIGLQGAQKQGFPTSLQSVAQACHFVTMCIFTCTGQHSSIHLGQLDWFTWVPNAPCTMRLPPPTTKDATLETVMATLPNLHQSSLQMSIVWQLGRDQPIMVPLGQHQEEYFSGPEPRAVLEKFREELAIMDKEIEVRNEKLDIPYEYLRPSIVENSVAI
As to the kind of experiment: biochemical. In kind it is tissue-based, Reticulocytes. The conditions noted are these: reticulocytes.

Series [2] can be described thus: DRUGMATRIX: ATPase, Na+/K+ enzyme inhibition (substrate: ATP). In kind it is tissue-based, Sus scrofa, Heart. The following applies: Not Active = under 50% inhibition at 10 µM.
Series [3] addresses Tyrosine-protein kinase Fyn (Homo sapiens, UniProt P06241). As to the kind of experiment: biochemical. In kind it is cell-based, Insect cells. The following applies: insect cells.
The target of the next series is T4, Estrogen receptor (Homo sapiens, UniProt P03372). Also: in other assays of this panel Not Active means under 50% inhibition at 10 µM.
T4 sequence (P03372 whole entry): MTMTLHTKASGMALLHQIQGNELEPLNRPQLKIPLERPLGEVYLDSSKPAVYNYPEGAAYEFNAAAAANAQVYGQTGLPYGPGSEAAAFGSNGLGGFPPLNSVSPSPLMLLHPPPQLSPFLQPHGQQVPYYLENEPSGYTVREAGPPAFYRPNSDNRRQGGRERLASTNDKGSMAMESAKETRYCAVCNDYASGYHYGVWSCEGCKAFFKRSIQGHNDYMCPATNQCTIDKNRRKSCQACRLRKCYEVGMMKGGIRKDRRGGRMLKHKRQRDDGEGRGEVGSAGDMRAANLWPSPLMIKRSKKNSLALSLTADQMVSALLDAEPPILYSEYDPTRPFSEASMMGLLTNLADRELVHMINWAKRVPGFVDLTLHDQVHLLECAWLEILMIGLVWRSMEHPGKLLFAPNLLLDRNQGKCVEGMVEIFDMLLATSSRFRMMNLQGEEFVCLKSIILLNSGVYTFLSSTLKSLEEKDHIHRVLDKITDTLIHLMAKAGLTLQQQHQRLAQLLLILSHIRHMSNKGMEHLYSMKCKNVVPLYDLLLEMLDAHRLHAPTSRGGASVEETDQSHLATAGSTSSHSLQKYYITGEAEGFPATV
The conditions noted are these: sf9.

The next series addresses Carbonic anhydrase 2 (Homo sapiens, UniProt P00918). As to the kind of experiment: DRUGMATRIX: Carbonic Anhydrase II enzyme inhibition (substrate: 4-Nitrophenyl acetate (4-NPA)). The class given is tissue-based, Erythrocyte. The following applies: erythrocyte; Not Active = under 50% inhibition at 10 µM.
The target in series [4] is Kappa-type opioid receptor (Homo sapiens, UniProt P41145). As to the kind of experiment: DRUGMATRIX: Opiate kappa (OP2, KOP) radioligand binding (ligand: [3H] Diprenorphine). The following applies: hek293; Not Active = under 50% inhibition at 10 µM. In kind it is cell membranes, HEK293, Membrane.
Sequence of Kappa-type opioid receptor (P41145 whole entry): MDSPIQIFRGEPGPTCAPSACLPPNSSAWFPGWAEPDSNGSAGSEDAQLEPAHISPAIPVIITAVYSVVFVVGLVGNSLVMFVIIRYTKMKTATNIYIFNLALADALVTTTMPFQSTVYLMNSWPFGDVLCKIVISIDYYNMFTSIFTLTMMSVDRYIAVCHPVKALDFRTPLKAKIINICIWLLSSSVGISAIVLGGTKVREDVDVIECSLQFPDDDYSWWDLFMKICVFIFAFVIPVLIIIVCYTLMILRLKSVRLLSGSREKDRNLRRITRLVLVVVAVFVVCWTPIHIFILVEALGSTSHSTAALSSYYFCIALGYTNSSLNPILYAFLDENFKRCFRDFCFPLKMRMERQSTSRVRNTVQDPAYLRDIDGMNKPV

Sequence of Tyrosine-protein kinase Fyn (P06241 whole entry): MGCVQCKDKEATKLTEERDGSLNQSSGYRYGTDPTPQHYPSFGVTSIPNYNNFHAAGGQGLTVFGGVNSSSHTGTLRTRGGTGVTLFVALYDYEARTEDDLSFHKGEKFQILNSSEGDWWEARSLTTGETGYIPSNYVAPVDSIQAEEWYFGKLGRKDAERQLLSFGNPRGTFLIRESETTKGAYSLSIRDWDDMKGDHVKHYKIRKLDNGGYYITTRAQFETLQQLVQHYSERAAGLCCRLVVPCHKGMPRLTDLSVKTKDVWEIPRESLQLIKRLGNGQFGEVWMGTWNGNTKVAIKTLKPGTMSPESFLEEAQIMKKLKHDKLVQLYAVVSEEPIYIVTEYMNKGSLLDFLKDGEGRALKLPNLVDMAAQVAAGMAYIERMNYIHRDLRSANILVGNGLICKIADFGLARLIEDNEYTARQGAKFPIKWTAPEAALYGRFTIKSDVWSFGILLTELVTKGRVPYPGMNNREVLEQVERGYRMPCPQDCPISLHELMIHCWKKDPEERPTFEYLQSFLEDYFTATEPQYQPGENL

`NC(=O)N1c2ccccc2CCc2ccccc21`: the IC50 entry (against Cytochrome P450 2A6; against Caspase-1; in series [1]; in series [2]; in series [3]; at Estrogen receptor) was “Not Active” in each case. Also, the IC50 result (against Carbonic anhydrase 2; in series [4]) was “Not Active” each time. For the same molecule, the Ki result (at Cytochrome P450 2A6; in series [2]) was “Not Active” each time.
As to `Nc1c(Br)cc(Br)cc1CN[C@H]1CC[C@H](O)CC1` [AMBROXOL], the IC50 entry (against Caspase-1; in series [1]; in series [2]; in series [3]; on Estrogen receptor; against Carbonic anhydrase 2) was “Not Active” each time. Besides, the IC50 result in series [4] is given as “Not Active”. Moreover, the Ki result in series [2] is reported as “Not Active”.
For `COc1ccc(C[C@H]2NC[C@H](O)[C@H]2OC(C)=O)cc1` [ANISOMYCIN], the IC50 entry (against Cytochrome P450 2A6; on Caspase-1; in series [1]; in series [2]; in series [3]; at Estrogen receptor) was “Not Active” each time. Besides, the IC50 result against Carbonic anhydrase 2 was “Not Active”. Besides, the Ki result (at Cytochrome P450 2A6; on Caspase-1; in series [1]; in series [2]; in series [3]; at Estrogen receptor) was “Not Active” throughout. In addition, the Ki result on Carbonic anhydrase 2 is recorded as “Not Active”.
For the molecule `Cc1ccc(-c2cc(C(F)(F)F)nn2-c2ccc(S(N)(=O)=O)cc2)cc1` [CELECOXIB], the IC50 entry (against Cytochrome P450 2A6; on Caspase-1; in series [1]; in series [2]; in series [3]; at Estrogen receptor) was “Not Active” throughout. Also, the IC50 result in series [4] is reported as “Not Active”. Further, the Ki entry (on Cytochrome P450 2A6; in series [2]) was “Not Active” throughout.
As to `O=C(O)CCCc1ccc(N(CCCl)CCCl)cc1` [CHLORAMBUCIL], the IC50 entry (at Cytochrome P450 2A6; against Caspase-1; in series [1]; in series [2]; in series [3]; against Estrogen receptor) was “Not Active” in each case. Besides, the IC50 entry against Carbonic anhydrase 2 is given as “Not Active”. The Ki result (on Cytochrome P450 2A6; in series [2]) was “Not Active” in each case.
As to `CC1=C2C(=CO[C@H](C)[C@H]2C)C(O)=C(C(=O)O)C1=O` [CITRININ], the IC50 entry (on Cytochrome P450 2A6; on Caspase-1; in series [1]; in series [2]; in series [3]; on Estrogen receptor) was “Not Active” in each case. Moreover, the IC50 result against Carbonic anhydrase 2 was “Not Active”. The Ki result (at Cytochrome P450 2A6; in series [2]) was “Not Active” throughout.
Consider `N=C(N)NCCN1CCCCCCC1` [GUANETHIDINE], for which the IC50 entry (on Caspase-1; in series [1]; in series [2]; in series [3]; on Estrogen receptor; against Carbonic anhydrase 2) was “Not Active” in each case. Also, the IC50 entry in series [4] was “Not Active”. Further, in series [2], the Ki entry was “Not Active”.
Consider `CC1(C)S[C@@H]2[C@H](NC(=O)Cc3ccccc3)C(=O)N2[C@H]1C(=O)O` [PENICILLIN G], for which the IC50 result (at Caspase-1; in series [1]; in series [2]; in series [3]; against Estrogen receptor; on Carbonic anhydrase 2) was “Not Active” each time. In addition, in series [4], the IC50 result is reported as “Not Active”. For the same molecule, the Ki entry in series [2] is “Not Active”.
For the molecule LIPOPOLYSACCHARIDE E. COLI O55:B5, the IC50 result on Cytochrome P450 2A6 is “Not Active”; against Caspase-1, “Not Active”; in series [1] it was “Not Active”; in series [2] it was “Not Active”; in series [3] (read-out: IC50), 191 nM; on Estrogen receptor, “Not Active”. The IC50 entry against Carbonic anhydrase 2 was “Not Active”. Moreover, the Ki result (at Cytochrome P450 2A6; on Caspase-1; in series [1]; in series [2]; at Estrogen receptor; on Carbonic anhydrase 2) was “Not Active” each time.
